This note sets out measurements from patent US10793509B2, “Compounds useful in the treatment of neoplastic diseases” (UNIVERSITÄT ZU KÖLN, priority 2013, dated 2020).

The structures appear in SMILES notation. “And” between values parts separate entries of the source, which are not always exact repeats. Equal values may be shown once.

Data set [1] deals with several cancer cell lines. As to the kind of experiment: Apoptosis (Annexin V/PI) assay, panel of cancer cell lines. Type of data set: cell-based. The conditions noted are these: range over the cancer cell lines, 24 h; read-out: concentrations inducing apoptosis in different diseases (apoptosis array).
Data set [2] deals with peripheral blood mononuclear cells (PBMCs) of healthy donors. Description: AnnexinV/PI assay on PBMCs of healthy donors. The conditions noted are these: Homo sapiens, PBMC; 24 h incubation, 0.01-100 μM, 5*10^6 cells/ml, normalized to DMSO control; read-out: AnnexinV/PI assay EC50 PBMCs. Type of data set: cell-based. As to the method:
PBMCs or CLL cells (5*10^6 cells/ml) were incubated for 24 h with different compounds at concentrations from 0.01 to 100 μM. Cell survival was normalized to DMSO control [vehicle]. See Example 1.
Primary CLL or peripheral blood mononuclear cells of healthy donors (5*10^6/ml) were incubated for 24 h with different compounds according to the invention and NO-ASA as a control. The compounds were added in different concentrations, in particular in concentrations from 0.01-100 μM. Cell survival was assessed by AnnexinV/PI assay (Kit commercially available, e.g. by Biotium Inc, USA; or Phoenix Flow Systems, US), the results were normalized to DMSO control [vehicle] and dose response curves were calculated using a non-linear regression model.

Data set [3] deals with phosphorylated NFkappaBp65 protein. As to the kind of experiment: Western blot of NFkappaB phosphorylation status in CLL cells. Type of data set: cell-based, human. The conditions noted are these: 3 h. As to the method:
CLL cells were treated with B1, B9, B12 and B13 (0.1 μM, 1 μM, 10 μM) for 3 h. Untreated and DMSO (1%) treated cells served as control. GAPDH=loading control.
The BCR signalling pathway plays an important pathogenic role in CLL and lymphomas leading often to a constitutive active NFkappaB (in this state NFkappaB is phosphorylated). Therefore the influence of the derivatives on the phosphorylation status of NFkappaB was analyzed by Western Blot. CLL cells were treated with 0.1 μM, 1 μM or 10 μM of each derivate, respectively, for 3 h. CLL cells were treated with B1, B9, B12 and B13 (0.1 μM, 1 μM, 10 μM) for 3 h. Untreated and DMSO (1%) treated cells served as control. GAPDH=loading control.
A general note: A western blot detects proteins with antibodies after separation by electrophoresis.

The test system of data set [4] is U2932. As to the kind of experiment: CellTiter-Glo ATP assay, U2932 cell line. Type of data set: cell-based. The conditions noted are these: 24 h, 0.01-1000 μM. As to the method:
(§1) Several cell lines (n=5) were treated with different concentrations of p-NO-ASA, B9, B12 and B13 ranging between 0.01 μM and 1000 μM for 24 hours followed by addition of luminogenic CellTiter-Glo®-reagent. […] For each cell line the order of used compound in the bar chart is from left to right as following: p-NO-ASA, B9, B12, B13.
(§2) Treatment success in CLL may depend on cytogenetic and molecular parameters as for instance del13q or TP53 gene disruption. Therefore, the NO-ASA derivatives were examined on (chronic) B cell lymphoma cell lines with different geno- and phenotypes (JVM3, EHEB, U2932, MEC-1, GRANTA-519). The cells were treated with concentrations between 0.01 and 1000 μM for 24 h followed by the addition of luminogenic CellTiter-Glo® reagent.
On the technique in general: In ATP-based viability assays light output follows the ATP content of the culture.

Data set [5] deals with GRANTA-519. Description: CellTiter-Glo ATP assay, GRANTA-519 cell line. Type of data set: cell-based. The conditions noted are these: Homo sapiens, Granta-519; 24 h, CellTiter-Glo. Here is the method: as §1, §2
For data set [6], the system named is melanoma cell line MelJuso. As to the kind of experiment: Annexin V/PI assay, MelJuso. Type of data set: cell-based. To be noted: Homo sapiens, MEL-JUSO, 24 h.
Data set [7] relates to JVM3 cells (human chronic B cell leukemia cell line). Description: CLL xenograft mouse model (JVM3 cells subcutaneously in SCID beige mice). Type of data set: in vivo. As to the method:
Treatment with B9 leads to significant tumor inhibition compared to vehicle control (p=0.015) after nine days with increasing significance up to day 19 of treatment (p=0.0003). IRmax value of 65% for B9 over vehicle control was determined. *=p≤0.05, **=p≤0.01, ***=p≤0.001 calculated by unpaired two-tailed students test, †=death, IR=Inhibition ratio.
Due to its favorable characteristics B9 was chosen for in vivo testing in a CLL xenograft mouse model. JVM3 cells (human chronic B cell leukemia cell line) were injected subcuntaneously into the flank of immunincompetent mice. The developing solid tumor was treated with intraperitoneal injections of 8 mg/kg of compound B9 or sesame oil (vehicle) every other day (see FIG. 4).
1*10^7 JVM3 cells were injected subcutaneously in SCID beige mice (CB17.Cg-Prkdc^scidLyst^bg-J/Crl). Tumors were measured every other day by caliper and the tumor volume was calculated V=(Length*(0.5*Width^2)). Mice carrying a tumor of more than 50 mm^3 were treated every other day with either sesame oil (vehicle control) or with 8 mg/kg B9 solved in sesame oil via intraperitoneal injections. The abortion criteria given by the GV-SOLAS for tumor bearing mice were applied. p-values were calculated using unpaired two-tailed Students test.

The mark [8] stands for this setting: mice, 8 mg/kg i.p. every other day.

Turning to `O=C(Oc1ccc(CO[N+](=O)[O-])cc1)c1ccccc1` [B9, 4-((nitrooxy)methyl)phenyl benzoate], the EC50 in data set [1] is 1 to 9 µM; in data set [2] it was 79.5 µM; in data set [5], 2280 nM; in data set [6], 8.76 µM. Moreover, the “reduction of NFkappaB activity (phosphorylated NFkappaBp65)” value in data set [3] (CLL cells, 0.1, 1, 10 μM) is “concentration dependent reduction”. In addition, the “concentration inducing the reduction of NFkappaB p65 protein” value in data set [3] (CLL cells) amounted to 10 µM. Also, the “ATP content in U2932” value in data set [4] is listed as “reduced ATP content”. The “Inhibition ratio of tumor growth (IR, IRmax) over vehicle control” value in data set [7] (8 mg/kg i.p. every other day in sesame oil, highest at day 17) is 65.33% and 65%. The tumor growth entry in data set [7] (8 mg/kg i.p. every other day vs sesame oil vehicle) is “significant reduction in tumor growth”. For the same compound, in data set [7] (Day 9 of treatment, 8 mg/kg i.p. every other day), the tumor volume is given as 82.97 mm^3. The bodyweight result in data set [7] (setting [8]) is reported as “A reduction of bodyweight was not observed”. Besides, the severe side effects entry in data set [7] (setting [8]) is on record as “Severe side effects were not observed”. In addition, in data set [7] (mice, 8 mg/kg i.p. every other day, drinking and feeding normally), the mobility after treatment result was “slightly reduced mobility for 15 to 30 min”.
